Assay results reported in US11286281B2, “Homodetic cyclic peptides targeting alpha-4-beta-7 integrin” (priority 2017, dated 2022).
pIC50: −log10 of the molar value. “And” between values parts separate entries of the source, which are not always exact repeats. Equal values may be shown once. Numbered stars: 1 amine (or outer) side, 2 acyl side, 3 side chain; on linkers, the order of the positions; unused ones are H or OH. Square brackets hold non-standard residues; d marks the D form. Peptide text beside a SMILES is read from it. X1 = O=C(c1ccc(-c2ccc(N3CCNCC3)cc2)c(CN[*:1])c1)[*:2]

Target: T1, integrin α4β7 (Homo sapiens, UniProt P13612+P26010)
T1 sequence (P13612 34-1032): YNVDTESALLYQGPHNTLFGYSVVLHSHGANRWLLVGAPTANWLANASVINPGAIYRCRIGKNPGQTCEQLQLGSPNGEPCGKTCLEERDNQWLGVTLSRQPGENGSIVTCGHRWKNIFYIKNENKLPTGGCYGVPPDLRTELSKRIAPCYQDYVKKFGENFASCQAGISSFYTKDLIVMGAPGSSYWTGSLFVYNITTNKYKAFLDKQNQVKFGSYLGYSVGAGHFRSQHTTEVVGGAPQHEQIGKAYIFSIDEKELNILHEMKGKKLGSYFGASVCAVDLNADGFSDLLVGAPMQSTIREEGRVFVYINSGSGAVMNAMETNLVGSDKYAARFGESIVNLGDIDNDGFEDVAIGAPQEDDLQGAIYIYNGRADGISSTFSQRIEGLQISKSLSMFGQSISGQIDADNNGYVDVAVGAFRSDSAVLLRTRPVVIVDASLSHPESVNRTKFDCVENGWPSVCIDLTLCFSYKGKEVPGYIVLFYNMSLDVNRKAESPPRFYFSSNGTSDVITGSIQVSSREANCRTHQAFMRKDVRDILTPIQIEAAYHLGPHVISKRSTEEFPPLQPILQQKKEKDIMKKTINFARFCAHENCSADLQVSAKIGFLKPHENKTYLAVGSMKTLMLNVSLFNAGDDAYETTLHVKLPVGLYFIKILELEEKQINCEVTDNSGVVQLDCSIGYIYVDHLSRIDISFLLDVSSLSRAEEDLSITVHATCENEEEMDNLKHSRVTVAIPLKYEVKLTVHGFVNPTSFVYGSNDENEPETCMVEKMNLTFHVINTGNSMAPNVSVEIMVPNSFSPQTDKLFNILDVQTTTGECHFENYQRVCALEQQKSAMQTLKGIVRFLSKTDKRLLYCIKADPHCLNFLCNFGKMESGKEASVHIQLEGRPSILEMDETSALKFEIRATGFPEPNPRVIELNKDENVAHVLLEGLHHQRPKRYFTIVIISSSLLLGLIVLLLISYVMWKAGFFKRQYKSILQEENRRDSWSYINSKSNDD
T1 sequence (P26010 20-798): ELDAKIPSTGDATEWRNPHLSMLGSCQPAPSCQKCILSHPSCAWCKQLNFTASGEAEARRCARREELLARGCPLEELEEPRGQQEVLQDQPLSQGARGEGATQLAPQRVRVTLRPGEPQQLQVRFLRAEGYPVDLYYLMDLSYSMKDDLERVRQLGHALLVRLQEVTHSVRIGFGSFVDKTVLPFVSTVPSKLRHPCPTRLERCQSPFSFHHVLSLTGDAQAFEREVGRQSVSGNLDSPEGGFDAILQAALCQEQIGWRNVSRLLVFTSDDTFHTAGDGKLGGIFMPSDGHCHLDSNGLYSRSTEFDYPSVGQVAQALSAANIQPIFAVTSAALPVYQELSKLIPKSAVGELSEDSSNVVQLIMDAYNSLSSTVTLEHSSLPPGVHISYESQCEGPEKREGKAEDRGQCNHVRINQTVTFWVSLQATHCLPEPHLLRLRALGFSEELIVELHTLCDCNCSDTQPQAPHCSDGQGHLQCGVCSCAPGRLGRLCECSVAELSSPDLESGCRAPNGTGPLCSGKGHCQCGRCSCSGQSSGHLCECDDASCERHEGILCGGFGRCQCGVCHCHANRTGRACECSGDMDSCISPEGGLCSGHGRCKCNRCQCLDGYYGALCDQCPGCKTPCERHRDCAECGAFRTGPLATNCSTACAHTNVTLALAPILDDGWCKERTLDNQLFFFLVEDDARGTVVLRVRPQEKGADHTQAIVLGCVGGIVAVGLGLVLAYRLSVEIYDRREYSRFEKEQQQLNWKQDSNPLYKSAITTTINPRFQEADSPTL
Test: Integrin α4β7-MAdCAM human cell adhesion assay (RPMI8866 cells)
Format: cell-based
Design: host or cells: RPMI8866 human cells
Settings: for pIC50: adhesion of RPMI8866 cells to MAdCAM-1 coated plates
Protocol: RPM18866 human cells (Sigma #95041316) were cultured in RPMI 1640 medium (HyClone SH30027.1) supplemented with 10% FBS (Seradigm) and 1% Penicillin-Streptomycin. […] RPM18866 cells were resuspended at 10 million cells/ml in PBS containing […] and incubated at 37° C. for 30 min in a 50 ml tube. […] The plate was emptied by inverting and blotting on paper towels and washed manually twice with PBS. 100 μl PBS was then added to each well. The fluorescence was read (Ex495/Em515) using a plate reader (Tecan Infinite 1000). To calculate the dose response, the fluorescence value of control wells not containing cells was subtracted from each test well.

CC(C)C[C@@H]1NC(=O)c2ccc(-c3ccc(N4CCNCC4)cc3)c(c2)CNC(=O)[C@@H]2CCCN2C(=O)[C@H](C)NC(=O)[C@H]([C@@H](C)O)NC(=O)[C@H](CC(=O)O)NC1=O [Compound 8] (cyclo(P[X1]LDTA))
fold difference in IC50 between RAMOS and RPMI8866 cell adhesion assays, in favor of integrin α4β7 (RAMOS (α4β1) versus RPMI8866 (α4β7)): 2.2 fold | pIC50: ~6.69 and 6.69

CC(C)C[C@@H]1NC(=O)c2ccc(-c3ccc(N4CCN(C(=O)COCC(=O)N5CCN(c6ccc(-c7ccc8cc7CNC(=O)[C@@H]7CCCN7C(=O)[C@H](C)NC(=O)[C@H]([C@@H](C)O)NC(=O)[C@H](CC(=O)O)NC(=O)[C@H](CC(C)C)NC8=O)cc6)CC5)CC4)cc3)c(c2)CNC(=O)[C@@H]2CCCN2C(=O)[C@H](C)NC(=O)[C@H]([C@@H](C)O)NC(=O)[C@H](CC(=O)O)NC1=O [Compound 17]
pIC50: ~7.72

CC(C)C[C@@H]1NC(=O)c2ccc(-c3ccc(N4CCN(Cc5cccc(CN6CCN(c7ccc(-c8ccc9cc8CNC(=O)[C@@H]8CCCN8C(=O)[C@H](C)NC(=O)[C@H]([C@@H](C)O)NC(=O)[C@H](CC(=O)O)NC(=O)[C@H](CC(C)C)NC9=O)cc7)CC6)c5)CC4)cc3)c(c2)CNC(=O)[C@@H]2CCCN2C(=O)[C@H](C)NC(=O)[C@H]([C@@H](C)O)NC(=O)[C@H](CC(=O)O)NC1=O [Compound 18]
pIC50: 8.08
